Measured values from publication PMC5522529, “Mechanisms of Paradoxical Activation of AMPK by the Kinase Inhibitors SU6656 and Sorafenib” (Cell Chemical Biology, 2017).

Key:
[1] = target: T1, α2β2γ1 complex (Homo sapiens, UniProt P54619+P54646); test: Inactivation of full-length α2β2γ1 complex by PP2Cα; type: biochemical; conditions: 5 mM ATP, AMP 2 mM, SU6656 up to 10 μM
T1 construct: bacterially expressed α2-KD or a full-length α2β2γ1 complex, both of which had been phosphorylated using CaMKK2; made in house; host or cells: bacteria
T1 sequence (P54646 whole entry): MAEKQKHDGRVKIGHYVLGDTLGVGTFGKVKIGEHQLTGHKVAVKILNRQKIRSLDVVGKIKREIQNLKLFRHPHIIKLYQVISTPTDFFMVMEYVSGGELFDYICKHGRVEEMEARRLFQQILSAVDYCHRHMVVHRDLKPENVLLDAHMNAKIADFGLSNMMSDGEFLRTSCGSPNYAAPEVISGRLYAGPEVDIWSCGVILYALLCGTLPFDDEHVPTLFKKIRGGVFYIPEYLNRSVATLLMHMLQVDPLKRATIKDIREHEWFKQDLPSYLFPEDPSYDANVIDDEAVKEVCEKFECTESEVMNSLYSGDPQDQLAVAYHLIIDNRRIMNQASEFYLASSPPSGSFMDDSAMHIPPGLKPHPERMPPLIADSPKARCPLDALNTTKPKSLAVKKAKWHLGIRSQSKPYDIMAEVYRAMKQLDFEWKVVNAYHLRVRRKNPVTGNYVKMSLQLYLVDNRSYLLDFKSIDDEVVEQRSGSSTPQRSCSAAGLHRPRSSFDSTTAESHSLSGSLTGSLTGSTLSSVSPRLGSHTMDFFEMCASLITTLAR
T1 sequence (O43741 whole entry partner): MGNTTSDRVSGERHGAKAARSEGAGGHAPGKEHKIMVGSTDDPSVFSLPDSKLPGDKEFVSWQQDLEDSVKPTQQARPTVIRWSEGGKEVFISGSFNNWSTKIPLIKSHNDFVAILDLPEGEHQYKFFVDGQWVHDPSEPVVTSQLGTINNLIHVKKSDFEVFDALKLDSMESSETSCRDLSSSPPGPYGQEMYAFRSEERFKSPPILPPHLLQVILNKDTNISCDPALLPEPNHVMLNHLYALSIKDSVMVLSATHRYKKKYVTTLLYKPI
T1 sequence (P54619 whole entry): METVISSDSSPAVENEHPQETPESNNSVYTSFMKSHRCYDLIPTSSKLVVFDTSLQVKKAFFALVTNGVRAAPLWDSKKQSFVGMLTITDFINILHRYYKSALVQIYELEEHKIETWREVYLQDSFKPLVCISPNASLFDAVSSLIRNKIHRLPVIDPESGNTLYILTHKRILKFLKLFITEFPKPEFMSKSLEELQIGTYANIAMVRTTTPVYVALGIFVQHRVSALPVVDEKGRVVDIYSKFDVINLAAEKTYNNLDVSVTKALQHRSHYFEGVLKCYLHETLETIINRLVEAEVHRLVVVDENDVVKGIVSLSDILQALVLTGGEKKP

[2] = system: AMPK; test: AMPK activity in HeLa cells stably expressing LKB1; type: cell-based, human; conditions: HeLa cells expressing LKB1, 100 μM, 1 hr
Procedure: (§1) Figure 1 SU6656 Activates AMPK but Not AMPK-Related Kinases (A) HEK293 cells were incubated with the indicated concentrations of SU6656 or berberine (300 μM) for 1 hr; total AMPK activity was assayed in immunoprecipitates (top; mean ± SEM, n = 4), and phosphorylation of AMPK (Thr172), ACC (Ser80), and Raptor (Ser792) analyzed by western blotting (bottom; n = 2). (B) HEK293 cells were incubated with 100 μM SU6656 (1 hr), AMPK complexes containing α1, α2, β1, and β2 immunoprecipitated using isoform-specific antibodies, and AMPK activity measured (mean ± SEM, n = 4). (C) HeLa cells stably expressing LKB1 ([Fogarty et al., 2010]) were incubated with 100 μM SU6656 for 1 hr, AMPK or individual ARKs immunoprecipitated, and kinase assays carried out (antibodies that distinguish MARK2/MARK3 were not available, so they were assayed together). Results are means ± SEM (n = 2). In all panels, asterisks indicate significant differences from controls without SU6656. *p < 0.05, **p < 0.01, ****p < 0.0001. […]

[3] = system: AMPK-related kinases SIK1, SIK2, SIK3, SNARK, MARK2/3 and MARK4; test: AMPK-related kinase activity in HeLa cells stably expressing LKB1; type: cell-based, human; conditions: HeLa cells expressing LKB1, 100 μM, 1 hr
Procedure: as §1

[4] = system: Raptor; test: Raptor phosphorylation in HEK293 cells (western blot); type: cell-based, human; conditions: 1 hr
Procedure: Figure 1 SU6656 Activates AMPK but Not AMPK-Related Kinases (A) HEK293 cells were incubated with the indicated concentrations of SU6656 or berberine (300 μM) for 1 hr; total AMPK activity was assayed in immunoprecipitates (top; mean ± SEM, n = 4), and phosphorylation of AMPK (Thr172), ACC (Ser80), and Raptor (Ser792) analyzed by western blotting (bottom; n = 2). (B) HEK293 cells were incubated with 100 μM SU6656 (1 hr), AMPK complexes containing α1, α2, β1, and β2 immunoprecipitated using isoform-specific antibodies, and AMPK activity measured (mean ± SEM, n = 4). (C) HeLa cells stably expressing LKB1 ([Fogarty et al., 2010]) were incubated with 100 μM SU6656 for 1 hr, AMPK or individual ARKs immunoprecipitated, and kinase assays carried out (antibodies that distinguish MARK2/MARK3 were not available, so they were assayed together). Results are means ± SEM (n = 2). In all panels, asterisks indicate significant differences from controls without SU6656. *p < 0.05, **p < 0.01, ****p < 0.0001.
SDS-PAGE was performed using precast Bis-Tris 4–12% gradient polyacrylamide gels in the MOPS buffer system (ThermoFisher Scientific). Proteins were transferred to nitrocellulose membranes using the iBlot 2 system (ThermoFisher Scientific). […] Protein concentrations were determined by Coomassie Blue binding with bovine serum albumin as standard ([Bradford, 1976]). […]

With CN(C)S(=O)(=O)c1ccc2c(c1)/C(=C/c1cc3c([nH]1)CCCC3)C(=O)N2 [SU6656] the “protection against inactivation by PP2Cα” value [1] was “did not protect against inactivation”, the AMPK activity [2] was “robustly activated AMPK” and the “activity of AMPK-related kinases (ARKs)” value [3] was “none of the ARKs assayed were activated”.

In the case of COc1ccc2cc3[n+](cc2c1OC)CCc1cc2c(cc1-3)OCO2 [berberine], the Raptor phosphorylation [4] was “did promote Raptor phosphorylation”.
